Laboratory results reported in US9708665B2, “Spatial biomarker of disease and detection of spatial organization of cellular receptors” (The Regents of the University of California, priority 2009, dated 2017).
“Also recorded” adds a separate entry of the source.

What was measured:
MDA-MB-231 cells [1] = assay: ROCK inhibition: EphA2-ephrin-A1 radial transport on ephrin-A1 functionalized supported bilayers; format: cell-based, human; conditions: inhibitor 1 to 50 μM, normalized to untreated samples
Description: Radial Transport Analysis. Bright field microscopy was used to determine the area occupied by each cell. The corresponding areas in the fluorescence channel were then analyzed using the Radial Profile plugin from ImageJ, yielding a plot of normalized fluorescence intensities versus radial distance from the cell center. Plots were then normalized for cell size and averaged. Least squares analysis was then performed on the average normalized radial distribution using Origin 7.0 (OriginLab, Northampton, Mass.), and the slope of the calculated line was used as a score for propensity to radially transport ephrin-A1. ROCK Inhibition. Cells were detached from cell culture flasks using trypsin-EDTA and incubated at 37° C. for 2 hrs in media containing ROCK inhibitor Y-27632 (Sigma-Aldrich, Inc.) at concentrations ranging from 1-50 μM. […] Cells were cultured in drugged media for one hr on well plates containing Alexa Fluor 647-labeled ephrin-A1 functionalized supported bilayers. Cells were fixed, stained and imaged with epifluorescence microscopy as described above.

MDA-MB-231 cells [2] = assay: Trypan blue staining and cell counting (cell viability) under ROCK inhibitor treatment; format: cell-based, human; conditions: 2 hrs at 37° C., 1-50 μM
Description: ROCK Inhibition. Cells were detached from cell culture flasks using trypsin-EDTA and incubated at 37° C. for 2 hrs in media containing ROCK inhibitor Y-27632 (Sigma-Aldrich, Inc.) at concentrations ranging from 1-50 μM. […] Cells were cultured in drugged media for one hr on well plates containing Alexa Fluor 647-labeled ephrin-A1 functionalized supported bilayers. Cells were fixed, stained and imaged with epifluorescence microscopy as described above.

MDA-MB-231 cells [3] = conditions: binary mixture with ephrin-A1, 1 hr after plating
Description: Surface Functionalization. After lipid bilayer deposition, substrates were incubated for 45 min with a 0.01% bovine serum albumin (BSA; Sigma-Aldrich, Inc.) solution to minimize non-specific protein adsorption. The supported membranes were then incubated with a 17 nM solution of streptavidin (Fisher Scientific, Pittsburgh, Pa.) for 45 minutes. For experiments that quantify protein surface density, streptavidin conjugated to Alexa Fluor 488 (Invitrogen Corp.) was substituted for the unlabeled protein. The supported membrane was then thoroughly rinsed and substrates were incubated for 45 min with a 50 nM solution of ephrin-A1 (R&D Systems, Minneapolis, Minn.), which had been biotinylated (Fisher Scientific) and conjugated to Alexa Fluor 594 or Alexa Fluor 647 (both from Invitrogen Corp.).
Optical Microscopy. We used Nikon Eclipse TE2000-E and TE300 inverted microscopes with mercury arc lamps for epifluorescence illumination and 12 V, 100 W halogen lamps for bright field illumination. Total internal reflection fluorescence (TIRF) illumination was provided using a krypton/argon ion laser for 647 nm excitation, and an argon ion laser (Stabilite 2018 and Model 177 respectively, both from Spectra-Physics, Mountain View, Calif.) for 488 nm excitation. […]

Row | Compound | Eph-ephrin radial transport (capacity to transport EphA2-ephrin-A1 complexes to the center of the cell-supported membrane junction) (MDA-MB-231 cells [1]) | cell viability (Trypan blue staining and cell counting) (MDA-MB-231 cells [2]) | EphA2 organization with increasing RGD peptide density (MDA-MB-231 cells [3]) | cell-supported membrane contact area (RICM) with increasing RGD peptide density (MDA-MB-231 cells [3])
1 | C[C@@H](N)[C@H]1CC[C@H](C(=O)Nc2ccncc2)CC1 [Y-27632] | dose-dependent decrease; also recorded: dosage-dependent decrease | no adverse effects | – | –
2 | [Arg-Gly-Asp-d-Phe-Lys(Biotin-PEG-PEG)] [cyclic RGD peptide] | – | – | no change in EphA2 organization | progressively larger
